Earlier results on 1 compound are cited in patent US20180169018A1, “Method for improving the dissolution profile of a biologically active material” (iCeutica Pty Ltd., priority 2009, published 2018).

For the data set the following is noted: absorption by the body.

Regarding `Cc1cnc(NC(=O)C2=C(O)c3ccccc3S(=O)(=O)N2C)s1` [Meloxicam, meloxicam], the time of peak concentration (Tmax) – broadly, the time at which the peak concentration occurs – is 4 to 5 h.
